According to ChEMBL document CHEMBL1671744 (Antimicrob Agents Chemother, 2010):
Converted amounts (≈) assume the structure as drawn. Where a SMILES comes first, the peptide text is derived from it. [ ]: non-standard residue; d: D form. The star is where a group is joined. Leu(5,5,5,5',5',5'-F6) = N[C@@H](CC(C(F)(F)F)C(F)(F)F)C(=O)O; Lauroyl = CCCCCCCCCCCC(=O)*

Assays:
[1] = test system: Staphylococcus epidermidis; test: Antimicrobial activity against methicillin-resistant Staphylococcus epidermidis; type: functional
[2] = test system: Staphylococcus aureus; test: Antimicrobial activity against methicillin-resistant Staphylococcus aureus; type: functional
[3] = test system: Aspergillus fumigatus; test: Antimicrobial activity against Aspergillus fumigatus; type: functional
[4] = test system: Escherichia coli; test: Antimicrobial activity against Escherichia coli; type: functional
[5] = Toxicity in RBC assessed as hemolysis at 25 uM; type: cell-based; settings: erythrocyte
[6] = test system: Bacillus subtilis; test: Antimicrobial activity against Bacillus subtilis; type: functional
[7] = in vitro; settings: red blood cells
[8] = Toxicity in RBC assessed as hemolysis at 50 uM at pH 7.4; type: cell-based; settings: erythrocyte, pH 7.4, 50 µM
[9] = test system: Escherichia coli; test: Antimicrobial activity against Escherichia coli at pH 7.4; type: functional
[10] = test system: Escherichia coli; test: Antimicrobial activity against Escherichia coli at pH 5.5; type: functional
[11] = test system: Aspergillus fumigatus; test: Antimicrobial activity against Aspergillus fumigatus at pH 7.4; type: functional
[12] = test system: Aspergillus fumigatus; test: Antimicrobial activity against Aspergillus fumigatus at pH 5.5; type: functional

SMILES	MIC [4] [µM]	MIC [6] [µM]	HC50 [7] [µM]	other results
NC[C@H]1O[C@@H](O[C@@H]2[C@@H](O[C@@H]3O[C@H](COC(=O)Nc4ccccc4)[C@@H](O[C@@H]4O[C@H](CN)[C@@H](O)[C@H](O)[C@H]4N)[C@H]3OC(=O)Nc3ccccc3)[C@@H](O)[C@H](N)C[C@@H]2N)[C@H](N)[C@@H](O)[C@@H]1O.O=C(O)C(F)(F)F	–	–	–	MIC [1]: 0.5 µg/mL; MIC [2]: 1 µg/mL
CC(C)C[C@@H](N)C(=O)N[C@@H](CCCCN)C(=O)N[C@@H](CCCCN)C(=O)N[C@H](CC(C)C)C(=O)N[C@H](CC(C)C)C(=O)N[C@H](CC(C)C)C(=O)N[C@@H](CCCCN)C(=O)N[C@@H](CCCCN)C(=O)N[C@H](CC(C)C)C(=O)N[C@H](CC(C)C)C(=O)N[C@@H](CCCCN)C(=O)N[C@@H](CCCCN)C(=O)N[C@H](CC(C)C)C(N)=O	> 50	–	–	MIC [3]: 50 µM (≈ 78.9 µg/mL); MHC [5]: Non-toxic
CCCCCCCCCCCC(=O)N[C@H](CC(C)C)C(=O)N[C@@H](CCCCN)C(=O)N[C@@H](CCCCN)C(=O)N[C@H](CC(C)C)C(=O)N[C@H](CC(C)C)C(=O)N[C@H](CC(C)C)C(=O)N[C@@H](CCCCN)C(=O)N[C@@H](CCCCN)C(=O)N[C@H](CC(C)C)C(=O)N[C@H](CC(C)C)C(=O)N[C@@H](CCCCN)C(=O)N[C@@H](CCCCN)C(=O)N[C@H](CC(C)C)C(N)=O	25 (≈ 44 µg/mL)	–	–	MIC [3]: 6.25 µM (≈ 11 µg/mL); MHC [5]: Non-toxic
CC(C)[C@H](NC(=O)[C@H](CCCNC(=N)N)NC(=O)CNC(=O)[C@@H](NC(=O)[C@@H]1CCCN1C(=O)[C@@H](N)Cc1ccccc1)C(C)C)C(=O)N[C@@H](Cc1cnc[nH]1)C(=O)N[C@@H](CCCNC(=N)N)C(=O)N[C@@H](CC(C(F)(F)F)C(F)(F)F)C(=O)N[C@@H](CC(C(F)(F)F)C(F)(F)F)C(=O)N[C@@H](CCCNC(=N)N)C(=O)N[C@@H](CCCCN)C(=O)O (H-FPVGRVHR[Leu(5,5,5,5',5',5'-F6)][Leu(5,5,5,5',5',5'-F6)]RK-OH)	23 (≈ 39 µg/mL)	5.9 (≈ 9.99 µg/mL)	> 235	–
CC[C@H](C)[C@H](NC(=O)CN)C(=O)NCC(=O)N[C@@H](CCCCN)C(=O)N[C@@H](Cc1ccccc1)C(=O)N[C@@H](CC(C(F)(F)F)C(F)(F)F)C(=O)N[C@@H](Cc1cnc[nH]1)C(=O)N[C@@H](C)C(=O)N[C@@H](C)C(=O)N[C@@H](CCCCN)C(=O)N[C@@H](CCCCN)C(=O)N[C@@H](Cc1ccccc1)C(=O)N[C@@H](C)C(=O)N[C@@H](CCCCN)C(=O)N[C@@H](C)C(=O)N[C@@H](Cc1ccccc1)C(=O)N[C@H](C(=O)N[C@@H](C)C(=O)N[C@@H](CCC(=O)O)C(=O)N[C@@H](CC(C(F)(F)F)C(F)(F)F)C(=O)N[C@@H](CCSC)C(=O)N[C@@H](CC(N)=O)C(=O)N[C@@H](CO)C(N)=O)C(C)C (H-GIGKF[Leu(5,5,5,5',5',5'-F6)]HAAKKFAKAFVAE[Leu(5,5,5,5',5',5'-F6)]MNS-NH2)	0.92 (≈ 2.48 µg/mL)	0.92 (≈ 2.48 µg/mL)	7.4	–
CCCCCCCCCCCC(=O)N[C@H](CC(C)C)C(=O)N[C@@H](Cc1cnc[nH]1)C(=O)N[C@@H](Cc1cnc[nH]1)C(=O)N[C@H](CC(C)C)C(=O)N[C@H](CC(C)C)C(=O)N[C@@H](Cc1cnc[nH]1)C(=O)N[C@@H](Cc1cnc[nH]1)C(=O)N[C@H](CC(C)C)C(=O)N[C@H](CC(C)C)C(=O)N[C@@H](Cc1cnc[nH]1)C(=O)N[C@@H](Cc1cnc[nH]1)C(=O)N[C@H](CC(C)C)C(N)=O (Lauroyl-[dL]HH[dL][dL]HH[dL][dL]HH[dL]-NH2)	–	–	–	MHC [8]: Non-toxic; MIC [9]: > 100 µM; MIC [10]: > 100 µM; MIC [11]: > 100 µM; MIC [12]: 6.2 µM (≈ 10.5 µg/mL)
CC[C@H](C)[C@H](NC(=O)CN)C(=O)NCC(=O)N[C@@H](CCCCN)C(=O)N[C@@H](Cc1ccccc1)C(=O)N[C@@H](CC(C)C)C(=O)N[C@@H](Cc1c[nH]cn1)C(=O)N[C@@H](CO)C(=O)N[C@@H](C)C(=O)N[C@@H](CCCCN)C(=O)N[C@@H](CCCCN)C(=O)N[C@@H](Cc1ccccc1)C(=O)NCC(=O)N[C@@H](CCCCN)C(=O)N[C@@H](C)C(=O)N[C@@H](Cc1ccccc1)C(=O)N[C@H](C(=O)NCC(=O)N[C@@H](CCC(=O)O)C(=O)N[C@H](C(=O)N[C@@H](CCSC)C(=O)N[C@@H](CC(N)=O)C(=O)N[C@@H](CO)C(=O)O)[C@@H](C)CC)C(C)C [MAGAININ 2] (H-GIGKFLHSAKKFGKAFVGEIMNS-OH)	1 (≈ 2.47 µg/mL)	1 (≈ 2.47 µg/mL)	70.6	–
